Test results as given in patent publication US12012417B2, “N-substituted tetrahydrothienopyridine derivatives and uses thereof” (NOVARTIS AG, priority 2018, dated 2024).
Read-outs that look alike come from different tables or passages of the source.

What was measured:
[1] = system: Dengue 3 virus MY05-34640-WT-C6/36; assay: High-content imaging cell-based flavivirus immunodetection (HCl-CFI) assay, Dengue 3; conditions: Dengue virus, A549, 48 h, read-out: Dengue 3 virus MY05-34640-WT-C6/36 in A549 using HCl [Inhibitor/IC50] Qualified AC50
[2] = system: Dengue 4 virus MY01-22713; assay: High-content imaging cell-based flavivirus immunodetection (HCl-CFI) assay, Dengue 4; conditions: Dengue virus, A549, 48 h
[3] = system: Dengue 1 virus MY97-10245; assay: High-content imaging cell-based flavivirus immunodetection (HCl-CFI) assay, Dengue 1; conditions: Dengue virus, A549, 48 h, read-out: Dengue 1 virus MY97-10245 in A549 using HCl [Inhibitor/IC50] Qualified AC50
[4] = system: Dengue 2 virus MY97-10340; assay: High-content imaging cell-based flavivirus immunodetection (HCl-CFI) assay, Dengue 2; conditions: Dengue virus, A549, 48 h
Procedure, shortened: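 A549 cells infected at MOI 0.3, treated with 3-fold, 10-point compound dilutions for 48 h. After paraformaldehyde fixation, viral E protein immunostained with 4G2 antibody and nuclei counterstained; imaged by high-content imaging. EC50 = concentration reducing E protein expression by 50%, from dose-response curves.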

[5] = read-out: Dengue 4 virus MY01-22713 in A549 using HCl [Inhibitor/IC50] Qualified AC50, A549 cells, 48 h, viral E protein expression
[6] = read-out: Dengue 2 virus MY97-10340 in A549 using HCl [Inhibitor/IC50] Qualified AC50, A549 cells, MOI 0.3, 48 h, viral E protein expression

| Structure (SMILES) | EC50 [1] | EC50 [2, 5] | EC50 [3] | EC50 [4, 6] | EC50 ([2]; read-out: Dengue 4 virus MY01-22713 in A549 using HCl [Inhibitor/IC50] Qualified AC50) | EC50 ([4]; read-out: Dengue 2 virus MY97-10340 in A549 using HCl [Inhibitor/IC50] Qualified AC50) |
| --- | --- | --- | --- | --- | --- | --- |
| N#Cc1c(NC(=O)Cc2ccc3c(c2)CNS3(=O)=O)sc2c1CN(CC1CC(F)(F)C1)CC2 [Example 52, N-(3-cyano-5-((3,3-difluorocyclobutyl)methyl)-4,5,6,7-tetrahydrothieno[3,2-c]pyridin-2-yl)-2-(1,1-dioxido-2,3-dihydrobenzo[d]isothiazol-5-yl)acetamide] | 100 to 1000 nM | 100 to 1000 nM | > 1000 nM | 100 to 1000 nM |  |  |
| COP(C)(=O)c1ccc(CC(=O)Nc2sc3c(c2C#N)CN(Cc2cccc(F)c2)CC3)cc1 (centres unmarked) [Example 44, Methyl (4-(2-((3-cyano-5-(3-fluorobenzyl)-4,5,6,7-tetrahydrothieno[3,2-c]pyridin-2-yl)amino)-2-oxoethyl)phenyl)(methyl)phosphinate] | 100 to 1000 nM |  | > 1000 nM |  | 100 to 1000 nM | 100 to 1000 nM |
| CC1Cc2sc(NC(=O)Cc3ccc(S(=O)(=O)NCC4CCCC4)cc3)c(C#N)c2CN1CC1CCCC1 (centres unmarked) [Example 61, N-(3-cyano-5-(cyclopentylmethyl)-6-methyl-4,5,6,7-tetrahydrothieno[3,2-c]pyridin-2-yl)-2-(4-(N-(cyclopentylmethyl)sulfamoyl)phenyl)acetamide] | > 1000 nM | > 1000 nM | > 1000 nM | 100 to 1000 nM |  |  |
| CC1Cc2sc(NC(=O)Cc3ccc(S(=O)(=O)NCC4CC(F)(F)C4)cc3)c(C#N)c2CN1CC1CC(F)(F)C1 (centres unmarked) [Example 57, N-(3-cyano-5-((3,3-difluorocyclobutyl)methyl)-6-methyl-4,5,6,7-tetrahydrothieno[3,2-c]pyridin-2-yl)-2-(4-(N-((3,3-difluorocyclobutyl)methyl)sulfamoyl)phenyl)acetamide] | > 1000 nM | 100 to 1000 nM | > 1000 nM | 100 to 1000 nM |  |  |
| N#Cc1c(NC(=O)Cc2ccc(S(N)(=O)=O)cc2)sc2c1CCN(Cc1cccc(F)c1F)C2 [Example 106, N-(3-cyano-6-(2,3-difluorobenzyl)-4,5,6,7-tetrahydrothieno[2,3-c]pyridin-2-yl)-2-(4-sulfamoylphenyl)acetamide] | < 100 nM | < 100 nM | 100 to 1000 nM | < 100 nM |  |  |
| COC(=O)c1cccc(CN2CCc3c(sc(NC(=O)Cc4ccc(S(C)(=O)=O)cc4)c3C#N)C2)c1 [Example 120, methyl 3-((3-cyano-2-(2-(4-(methylsulfonyl)phenyl)acetamido)-4,7-dihydrothieno[2,3-c]pyridin-6(51-1)-yl)methyl)benzoate] | 100 to 1000 nM | < 100 nM | > 1000 nM | 100 to 1000 nM |  |  |
| N#Cc1c(NC(=O)Cc2ccc(S(N)(=O)=O)cc2)sc2c1CN(CC1CC(F)(F)C1)CC2 [Example 2, N-(3-cyano-5-((3,3-difluorocyclobutyl)methyl)-4,5,6,7-tetrahydrothieno[3,2-c]pyridin-2-yl)-2-(4-sulfamoylphenyl)acetamide] | 100 to 1000 nM | 100 to 1000 nM | > 1000 nM | 100 to 1000 nM |  |  |
| N#Cc1c(NC(=O)Cc2ccc(S(N)(=O)=O)cc2)sc2c1CN(Cc1cccc(F)c1)CC2 [Example 5, N-(3-cyano-5-(3-fluorobenzyl)-4,5,6,7-tetrahydrothieno[3,2-c]pyridin-2-yl)-2-(4-sulfamoylphenyl)acetamide] | < 100 nM | < 100 nM | 100 to 1000 nM | < 100 nM |  |  |
| CC1Cc2sc(NC(=O)Cc3ccc(S(N)(=O)=O)cc3)c(C#N)c2CN1Cc1cc(Cl)ccc1Cl (centres unmarked) [Example 64, N-(3-cyano-5-(2,5-dichlorobenzyl)-6-methyl-4,5,6,7-tetrahydrothieno[3,2-c]pyridin-2-yl)-2-(4-sulfamoylphenyl)acetamide] | < 100 nM | < 100 nM | < 100 nM | < 100 nM |  |  |
| CCOc1cc(CC(=O)Nc2sc3c(c2C#N)CN(Cc2cccc(F)c2)CC3)ccc1C(N)=O [Example 89, 4-(2-((3-cyano-5-(3-fluorobenzyl)-4,5,6,7-tetrahydrothieno[3,2-c]pyridin-2-yl)amino)-2-oxoethyl)-2-ethoxybenzamide] | 100 to 1000 nM | 100 to 1000 nM | 100 to 1000 nM | 100 to 1000 nM |  |  |
| Cc1cccc(CN2CCc3c(sc(NC(=O)Cc4ccc(S(N)(=O)=O)cc4)c3C#N)C2)c1C [Example 95, N-(3-cyano-6-(2,3-dimethylbenzyl)-4,5,6,7-tetrahydrothieno[2,3-c]pyridin-2-yl)-2-(4-sulfamoylphenyl) acetamide] | < 100 nM | < 100 nM | 100 to 1000 nM | 100 to 1000 nM |  |  |
| N#Cc1c(NC(=O)Cc2ccc(S(N)(=O)=O)cc2)sc2c1CCCN(CC1CCCCC1)C2 [Example 127, N-(3-cyano-7-(cyclohexylmethyl)-5,6,7,8-tetrahydro-4H-thieno[2,3-c]azepin-2-yl)-2-(4-sulfamoylphenyl)acetamide] | 100 to 1000 nM | 100 to 1000 nM | > 1000 nM | 100 to 1000 nM |  |  |
| CC1Cc2sc(NC(=O)Cc3ccc(S(N)(=O)=O)cc3)c(C#N)c2CN1C(C)c1ccccc1 (single isomer, unassigned) [Example 54, N-(3-cyano-6-methyl-5-(1-phenylethyl)-4,5,6,7-tetrahydrothieno[3,2-c]pyridin-2-yl)-2-(4-sulfamoylphenyl)acetamide] | < 100 nM | < 100 nM | 100 to 1000 nM | < 100 nM |  |  |
| Cn1cc(S(N)(=O)=O)cc1CC(=O)Nc1sc2c(c1C#N)CN(CC1CCCCC1)CC2 [Example 88, N-(3-cyano-5-(cyclohexylmethyl)-4,5,6,7-tetrahydrothieno[3,2-c]pyridin-2-yl)-2-(1-methyl-4-sulfamoyl-1H-pyrrol-2-yl)acetamide] | < 100 nM | < 100 nM | 100 to 1000 nM | < 100 nM |  |  |
| Cc1ccc(CN2CCc3c(sc(NC(=O)Cc4ccc(S(N)(=O)=O)cc4)c3C#N)C2)cc1 [Example 98, N-(3-cyano-6-(4-methylbenzyl)-4,5,6,7-tetrahydrothieno[2,3-c]pyridin-2-yl)-2-(4-sulfamoylphenyl)acetamide] | 100 to 1000 nM | 100 to 1000 nM | > 1000 nM | 100 to 1000 nM |  |  |
| CN(C)S(=O)(=O)c1ccc(CC(=O)Nc2sc3c(c2C#N)CN(Cc2cccc(F)c2)CC3)cc1 [Example 47, N-(3-cyano-5-(3-fluorobenzyl)-4,5,6,7-tetrahydrothieno[3,2-c]pyridin-2-yl)-2-(4-(N,N-dimethylsulfamoyl)phenyl)acetamide] | < 100 nM | 100 to 1000 nM | 100 to 1000 nM | < 100 nM |  |  |
| CS(=O)(=O)Nc1ccc(CC(=O)Nc2sc3c(c2C#N)CN(Cc2cccc(F)c2)CC3)cc1 [Example 46, N-(3-cyano-5-(3-fluorobenzyl)-4,5,6,7-tetrahydrothieno[3,2-c]pyridin-2-yl)-2-(4-(methylsulfonamido)phenyl)acetamide] | 100 to 1000 nM | 100 to 1000 nM | 100 to 1000 nM | 100 to 1000 nM |  |  |
| CC1(C)CS(=O)(=O)c2ccc(CC(=O)Nc3sc4c(c3C#N)CN(Cc3cccc(F)c3)CC4)cc21 [Example 42, N-(3-cyano-5-(3-fluorobenzyl)-4,5,6,7-tetrahydrothieno[3,2-c]pyridin-2-yl)-2-(3,3-dimethyl-1,1-dioxido-2,3-dihydrobenzo[b]thiophen-5-yl)acetamide] | < 100 nM | < 100 nM | 100 to 1000 nM | < 100 nM |  |  |
| Cc1cccc(CN2CCc3c(sc(NC(=O)Cc4ccc(S(C)(=O)=O)cc4)c3C#N)C2)c1 [Example 104, N-(3-cyano-6-(3-methylbenzyl)-4,5,6,7-tetrahydrothieno[2,3-c]pyridin-2-yl)-2-(4-(methylsulfonyl)phenyl)acetamide] | 100 to 1000 nM | < 100 nM | > 1000 nM | 100 to 1000 nM |  |  |
| CC1(C)Cc2sc(NC(=O)Cc3ccccc3)c(C#N)c2CN1CC1CCCCC1 [Example 73, N-(3-cyano-5-(cyclohexylmethyl)-6,6-dimethyl-4,5,6,7-tetrahydrothieno[3,2-c]pyridin-2-yl)-2-phenylacetamide] | 100 to 1000 nM | 100 to 1000 nM | 100 to 1000 nM | 100 to 1000 nM |  |  |
| CS(=O)(=O)c1ccc(CC(=O)Nc2sc3c(c2C#N)CCN(Cc2ccc(F)c(F)c2)C3)cc1 [Example 117, N-(3-cyano-6-(3,4-difluorobenzyl)-4,5,6,7-tetrahydrothieno[2,3-c]pyridin-2-yl)-2-(4-(methylsulfonyl)phenyl)acetamide] | 100 to 1000 nM | < 100 nM | 100 to 1000 nM | 100 to 1000 nM |  |  |
| CC1Cc2c(sc(NC(=O)Cc3ccc(S(N)(=O)=O)cc3)c2C#N)CN1Cc1cccc(F)c1 (centres unmarked) [Example 122, N-(3-cyano-6-(3-fluorobenzyl)-5-methyl-4,5,6,7-tetrahydrothieno[2,3-c]pyridin-2-yl)-2-(4-sulfamoylphenyl)acetamide] | 100 to 1000 nM | < 100 nM | > 1000 nM | < 100 nM |  |  |
| CC1Cc2sc(NC(=O)Cc3ccc(C(N)=O)cc3)c(C#N)c2CN1Cc1cccc(F)c1 (centres unmarked) [Example 58, 4-(2-((3-cyano-5-(3-fluorobenzyl)-6-methyl-4,5,6,7-tetrahydrothieno[3,2-c]pyridin-2-yl)amino)-2-oxoethyl)benzamide] | < 100 nM | < 100 nM | 100 to 1000 nM | < 100 nM |  |  |
